Patent US9517238B2, “Compositions and methods for treating allergic inflammation through inhibition of NTRK1” (CHILDREN'S HOSPITAL MEDICAL CENTER, priority 2014, dated 2016)

Experiments:
[1] = molecular target: T1, NTRK1 (Homo sapiens, UniProt P04629); assay: NGF-mediated induction of EGR genes in TE-7 cells stably expressing NTRK1, with tyrosine kinase inhibitors; type: cell-based; conditions: TE-7 epithelial cells, NGF stimulation
T1 construct: expressed in transfected cells
Description: In order to further investigate the functional link between IL-13 and NGF signaling we generated two pools of TE-7 cells stably expressing NTRK1 that allowed us to simultaneously induce IL-13 and NGF/NTRK1 responses.
We further hypothesized that inhibition of NTRK1 kinase activity will prevent induction of EGR genes following NGF stimulation. To test this hypothesis we utilized two tyrosine kinase inhibitors lestaurtinib (CEP-701) and crizotinib that were previously reported as efficient blockers of NTRK1 auto-phosphorylation and downstream signaling.

[2] = tested on: NTRK1 expression in esophageal biopsies; assay: RT-PCR analysis of NTRK1 in esophageal biopsies of EoE patients after swallowed steroid treatment; type: in vivo, human; conditions: EoE patients who responded to swallowed steroid treatment (FPR, n=13) vs active EoE and controls; FIG. 4A
Method: FIG. 4. NTRK1, NGF, and EGR1 expression in human allergic inflammation. In A, RT-PCR analysis of NTRK1 in biopsies was performed in unaffected control patients (Ctrl, n=13), patients with active EoE (EoE, n=12), and EoE patients who responded to swallowed steroid treatment (fluticasone responders [FPR], n=13); ***p<0.001; ns, not significant. In B and C, the graphs show Pearson correlation of NTRK1 expression with IL-13 levels and peak eosinophil counts in EoE biopsies. […] In E, quantification of NTRK1 in control and active EoE biopsies is shown (n=5 each); *p<0.05. Expression level was normalized to the level of GAPDH. In F, RT-PCR analysis of NGF and CCL26 was performed in control and EoE biopsies (n=10 each); ****p<0.0001; ns, not significant. In G, amount of NGF and CCL26 protein was measured by ELISA in control and active EoE biopsies (n=5 each); *p<0.05; ns, not significant. […] In I, EGR1 mRNA was measured by RT-PCR in esophageal biopsies of unaffected control (Ctrl) patients and patients with active EoE (n=10 each). ***p<0.001. […]
In vitro experiments with epithelial cells prompted us to investigate whether NTRK1 is increased in epithelial cells in vivo during allergic responses. First, we assessed expression of NTRK1 mRNA in esophageal biopsies of control and EoE patients. […]

T1 sequence (P04629 33-796): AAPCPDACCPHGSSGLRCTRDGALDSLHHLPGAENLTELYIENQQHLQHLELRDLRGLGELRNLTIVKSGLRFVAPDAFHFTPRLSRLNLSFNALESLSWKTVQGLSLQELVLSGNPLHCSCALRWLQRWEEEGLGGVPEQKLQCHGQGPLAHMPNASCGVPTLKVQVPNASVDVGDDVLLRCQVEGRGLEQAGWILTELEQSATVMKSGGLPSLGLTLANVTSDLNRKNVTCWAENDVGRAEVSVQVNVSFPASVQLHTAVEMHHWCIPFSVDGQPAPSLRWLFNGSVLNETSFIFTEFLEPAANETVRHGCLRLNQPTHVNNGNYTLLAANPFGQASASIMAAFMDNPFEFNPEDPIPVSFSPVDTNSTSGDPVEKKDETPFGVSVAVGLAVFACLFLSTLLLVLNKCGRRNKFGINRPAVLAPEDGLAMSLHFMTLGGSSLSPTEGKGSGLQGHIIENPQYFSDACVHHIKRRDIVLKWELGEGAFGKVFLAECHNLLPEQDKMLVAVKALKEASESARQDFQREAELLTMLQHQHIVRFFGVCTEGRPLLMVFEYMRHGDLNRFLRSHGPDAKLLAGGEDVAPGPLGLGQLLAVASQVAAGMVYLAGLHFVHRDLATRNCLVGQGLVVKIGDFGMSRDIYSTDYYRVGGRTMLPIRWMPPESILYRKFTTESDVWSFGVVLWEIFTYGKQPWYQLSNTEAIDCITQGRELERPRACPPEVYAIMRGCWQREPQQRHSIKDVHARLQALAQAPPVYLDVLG

| NGF-mediated increase in EGR1 mRNA ([1]; EGR1 mRNA) | NGF-mediated increase in EGR3 mRNA ([1]; EGR3 mRNA) | SMILES | NTRK1 mRNA expression in esophageal biopsies [2] |
| --- | --- | --- | --- |
| dramatically reduced | dramatically reduced | C[C@@H](Oc1cc(-c2cnn(C3CCNCC3)c2)cnc1N)c1c(Cl)ccc(F)c1Cl [crizotinib] |  |
|  |  | CCC(=O)O[C@]1(C(=O)SCF)[C@H](C)C[C@H]2[C@@H]3C[C@H](F)C4=CC(=O)C=C[C@]4(C)[C@@]3(F)[C@@H](O)C[C@@]21C [fluticasone propionate] | normalized levels |
